Experiments:
Type in all cases: toxicity, cell-based
HEK-293T = experiment: Incucyte cell viability with HEK293T; conditions: human, 10 µM, compound concentration 10 uM
U2OS = experiment: Incucyte cell viability with U2OS; conditions: human, 10 µM, compound concentration 10 uM
Fibroblast = experiment: Incucyte cell viability with human fibroblast; conditions: 10 µM, compound concentration 10 uM
Note: unitless GR value; below 1 slowed growth and below 0 cell loss.

Structure (SMILES)	Growth Rate (HEK-293T; 0 h, replicate number 1)	Growth Rate (HEK-293T; 18 h, replicate number 2)	Growth Rate (HEK-293T; 24 h, replicate number 2)	Growth Rate (U2OS; 0 h, replicate number 1)	Growth Rate (U2OS; 0 h, replicate number 2)	Growth Rate (U2OS; 6 h, replicate number 1)	Growth Rate (U2OS; 6 h, replicate number 2)	Growth Rate (U2OS; 12 h, replicate number 1)	Growth Rate (Fibroblast; 0 h, replicate number 2)	Growth Rate (Fibroblast; 6 h, replicate number 2)	Growth Rate (Fibroblast; 12 h, replicate number 1)	Growth Rate (Fibroblast; 12 h, replicate number 2)	Growth Rate (Fibroblast; 18 h, replicate number 1)	Growth Rate (Fibroblast; 18 h, replicate number 2)	Growth Rate (Fibroblast; 24 h, replicate number 1)	Growth Rate (U2OS; 12 h, replicate number 2)	Growth Rate (U2OS; 18 h, replicate number 2)	Growth Rate (U2OS; 24 h, replicate number 2)	Growth Rate (Fibroblast; 0 h, replicate number 1)	Growth Rate (U2OS; 24 h, replicate number 1)	other results
COc1ccccc1S(=O)(=O)Nc1ccc2c(c1)CN(C)C(=O)N2	0.51	0.98	0.9	-0.66	-0.75	0.81	0.5	0.83	0.57	-0.15	0.4	0.42	0.37	0.7	0.79						Growth Rate (HEK-293T; 0 h, replicate number 2): -0.37; Growth Rate (Fibroblast; 6 h, replicate number 1): 0.3
CNc1ncc2cc(-c3ccc(-c4cccc(C)n4)cc3Cl)c(=O)n(C[C@H]3OC[C@H](N)CO3)c2n1	-0.96			0.31			0.37		-0.44	0.69	0.36	0.19	0.37	0.14	0.41	0.83	0.77	0.53	0.26		Growth Rate (Fibroblast; 24 h, replicate number 2): 0.16
CN1CCN(c2ccc(-n3cc(-c4ccncc4OCC4CCNCC4)cn3)cc2)CC1	-0.6	0.13	0.07		0.97		0.51	0.92	0.21	0.33	0.81	0.22	0.68	0.19	0.62	0.4	0.31	0.16	0.3	0.53	Growth Rate (HEK-293T; 6 h, replicate number 1): -0.15; Growth Rate (HEK-293T; 6 h, replicate number 2): -0.17; Growth Rate (HEK-293T; 12 h, replicate number 1): 0.02; Growth Rate (HEK-293T; 12 h, replicate number 2): 0.09; Growth Rate (HEK-293T; 18 h, replicate number 1): 0.14; Growth Rate (HEK-293T; 24 h, replicate number 1): 0.11; Growth Rate (U2OS; 18 h, replicate number 1): 0.69; Growth Rate (Fibroblast; 6 h, replicate number 1): 0.93; Growth Rate (Fibroblast; 24 h, replicate number 2): 0.28
CCc1c(-c2ccc3[nH]ncc3c2)cnc(N)c1-c1ccc(O)cc1	-0.12	0.91	0.88		-0.93		0.84		-0.31											0.92	Growth Rate (HEK-293T; 6 h, replicate number 1): 0.85; Growth Rate (HEK-293T; 6 h, replicate number 2): 0.91; Growth Rate (HEK-293T; 12 h, replicate number 1): 0.8; Growth Rate (HEK-293T; 12 h, replicate number 2): 0.9; Growth Rate (HEK-293T; 24 h, replicate number 1): 0.99; Growth Rate (Fibroblast; 6 h, replicate number 1): 0.91
Cc1[nH]c2c(N3CCCCC3)c(-c3ccccc3)nn2c(=O)c1-c1ccc(O)cc1	-0.59			-0.56		0.77	0.87	0.9		0.19		0.39	0.73	0.35	0.64	0.92	0.93	0.82	-0.08	0.78	Growth Rate (HEK-293T; 6 h, replicate number 1): 0.95; Growth Rate (HEK-293T; 6 h, replicate number 2): 0.55; Growth Rate (HEK-293T; 12 h, replicate number 2): 0.88; Growth Rate (U2OS; 18 h, replicate number 1): 0.85; Growth Rate (Fibroblast; 24 h, replicate number 2): 0.24
Cc1ncsc1-c1ccc(CNC(=O)[C@@H]2C[C@@H](O)CN2C(=O)[C@@H](NC(=O)CCCCNC(=O)c2ccc(-c3ccc(N4CCN(C)CC4)c(NC(=O)c4c[nH]c(=O)cc4C(F)(F)F)c3)cc2)C(C)(C)C)cc1	-0.12	0.86	0.72	0.71		0.86	0.89		0.64		0.65	0.74	0.33	0.86	0.46	0.84	0.79	0.71	0.97	0.61	Growth Rate (HEK-293T; 6 h, replicate number 2): 0.8; Growth Rate (U2OS; 18 h, replicate number 1): 0.96; Growth Rate (Fibroblast; 6 h, replicate number 1): 0.29
O=c1[nH]c(CS[C@H]2CC[C@H](O)CC2)nc2cc(OCC3CC3)cc(F)c12	0.63	1	0.94	-0.28	0.9	0.81	0.82	0.45	0.47	0.65		0.67				0.73	0.66	0.64		0.98	Growth Rate (HEK-293T; 24 h, replicate number 1): 0.87; Growth Rate (U2OS; 18 h, replicate number 1): 0.92
COc1cc(-c2cncc(-c3ccc(N4CCN(C(C)C)CC4)cc3)c2C)cc(F)c1C(=O)N1CCCC1	-0.5		0.92						0.49	-0.22		0.11	0.73	0.27	0.76	1	0.99	0.89	-0.08		Growth Rate (HEK-293T; 0 h, replicate number 2): -0.2; Growth Rate (Fibroblast; 24 h, replicate number 2): 0.4
CC(=O)N1CCN([C@H]2CCC[C@@H](NC(=O)c3cc4c(F)ccc(C)c4[nH]3)C2)CC1.O=C(O)C(F)(F)F	0.94	0.68	0.48	0.28	0.78		0.95	0.84	-0.08	0.42		0.88		0.88		0.96	0.94	0.88	-0.07	0.99	Growth Rate (HEK-293T; 0 h, replicate number 2): -0.6; Growth Rate (HEK-293T; 6 h, replicate number 1): 0.9; Growth Rate (HEK-293T; 6 h, replicate number 2): 0.46; Growth Rate (HEK-293T; 12 h, replicate number 1): 0.75; Growth Rate (HEK-293T; 12 h, replicate number 2): 0.4; Growth Rate (Fibroblast; 24 h, replicate number 2): 0.9
CC(=O)O.Cc1cc2c(ncn2C2(C)CN(C(=O)c3ccn(CC4CCN([C@H]5C=CCCCC5)CC4)c3)C2)c(N)n1	-0.66			0.51		0.96			0.45	0.25	0.9	0.83	0.86	0.98						0.75	
CN1CCc2cc(Nc3ncc(C(F)(F)F)c(NCc4cc[nH]n4)n3)ccc2C1	-0.94	0.47	0.14				0.87		-0.64							0.56	0.37	0.22	-0.24	0.58	Growth Rate (HEK-293T; 12 h, replicate number 2): 0.73; Growth Rate (HEK-293T; 18 h, replicate number 1): 0.42; Growth Rate (HEK-293T; 24 h, replicate number 1): 0.29; Growth Rate (U2OS; 18 h, replicate number 1): 0.84
